From article PMC6562117, “The role of the tyrosine kinase Wzc (Sll0923) and the phosphatase Wzb (Slr0328) in the production of extracellular polymeric substances (EPS) by Synechocystis PCC 6803” (MicrobiologyOpen, 2019)

Tests used:
Wzb (Slr0328); His6-Wzb = biological target: T1, Wzb (Slr0328); His6-Wzb (Synechocystis sp. PCC 6803, UniProt Q55535); assay: continuous p-nitrophenol release at […] nm; assay type: biochemical; settings: 10 mM pNPP, 100 mM sodium citrate pH 6.5, 1 mM EDTA, 0.1% beta-mercaptoethanol, 30 C
T1 construct: one monomer in the asymmetric unit

Wzc (Sll0923); His6-Wzc = biological target: T2, Wzc (Sll0923); His6-Wzc (Synechocystis sp. PCC 6803, UniProt P72877); assay: ATP consumption by luciferase bioluminescence (ENLITEN); assay type: biochemical; settings: 25 mM Tris-HCl pH 7.0, 1 mM DTT, 5 mM MgCl2, 30 C, 45 min; heat-inactivated Wzc as control
T2 construct: gene epsB
T2 sequence (P72877 entry or part of it): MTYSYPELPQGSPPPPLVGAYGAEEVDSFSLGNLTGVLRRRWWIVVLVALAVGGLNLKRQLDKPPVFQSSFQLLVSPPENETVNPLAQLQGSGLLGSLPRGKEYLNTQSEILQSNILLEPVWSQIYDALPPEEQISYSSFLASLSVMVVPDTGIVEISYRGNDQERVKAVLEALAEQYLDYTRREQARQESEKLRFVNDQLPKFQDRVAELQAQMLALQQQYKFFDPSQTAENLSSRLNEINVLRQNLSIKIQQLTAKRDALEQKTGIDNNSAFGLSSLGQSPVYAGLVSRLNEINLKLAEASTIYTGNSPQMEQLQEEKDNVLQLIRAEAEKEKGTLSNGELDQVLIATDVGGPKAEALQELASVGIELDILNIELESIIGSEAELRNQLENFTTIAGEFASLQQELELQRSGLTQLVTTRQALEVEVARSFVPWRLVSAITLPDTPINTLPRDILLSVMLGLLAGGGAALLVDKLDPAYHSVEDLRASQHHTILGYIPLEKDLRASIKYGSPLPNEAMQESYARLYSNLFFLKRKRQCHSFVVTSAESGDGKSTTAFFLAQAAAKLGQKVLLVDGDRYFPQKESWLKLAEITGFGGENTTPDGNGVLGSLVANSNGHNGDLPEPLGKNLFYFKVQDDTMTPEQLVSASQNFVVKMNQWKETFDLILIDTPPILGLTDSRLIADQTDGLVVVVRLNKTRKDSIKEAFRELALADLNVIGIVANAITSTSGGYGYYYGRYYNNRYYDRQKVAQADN

T1 sequence (Q55535 whole entry): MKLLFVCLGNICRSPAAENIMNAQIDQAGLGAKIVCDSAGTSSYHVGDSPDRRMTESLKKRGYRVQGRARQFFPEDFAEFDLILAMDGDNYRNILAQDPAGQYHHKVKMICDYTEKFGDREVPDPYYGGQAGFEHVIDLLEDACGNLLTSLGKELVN

Structure (SMILES) | continuous p-nitrophenol release at 405 nm (Wzb (Slr0328); His6-Wzb) | ATP consumption by luciferase bioluminescence (ENLITEN) (Wzc (Sll0923); His6-Wzc)
O=[N+]([O-])c1ccc(OP(=O)(O)O)cc1 [p-nitrophenyl phosphate] | we first used a p‐nitrophenyl phosphate hydrolysis assay to confirm that Wzb functions as a phosphatase | –
Nc1ncnc2c1ncn2[C@@H]1O[C@H](COP(=O)(O)OP(=O)(O)OP(=O)(O)O)[C@@H](O)[C@H]1O [ATP] | – | Wzc is capable of ATP binding and hydrolysis
